# Reference: PubChem BioAssay (NCI)
#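 Grown in 96-well plates, cells were treated for 48 hours with each compound at five concentrations. Insufficient inhibition: endpoint recorded as highest concentration tested. GI50 = concentration required for 50% inhibition of growth. TGI: total growth inhibition.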
# What was measured:
# Assay in all cases: NCI-60 cell line screen, 48 h
# [1] = system: NCI/ADR-RES ovarian
# [2] = system: OVCAR-8 ovarian
# [3] = system: OVCAR-3 ovarian
# [4] = system: SF-539 CNS
# [5] = system: NCI-H226 lung
# [6] = system: TK-10 renal
# [7] = system: MDA-MB-231 breast
# [8] = system: MOLT-4 leukemia
# [9] = system: SR leukemia
# [10] = system: HCC-2998 colon
SMILES,TGI [1] [µM],TGI [2] [µM],TGI [3] [µM],TGI [4] [µM],TGI [5] [µM],TGI [6] [µM],TGI [7] [µM],TGI [8] [µM],TGI [9] [µM],TGI [10] [µM],GI50 [2] [µM],GI50 [3] [µM],GI50 [4] [µM],GI50 [7] [µM],GI50 [1] [µM],GI50 [9] [µM],GI50 [8] [µM]
CCOC(=O)c1cc(I)c(-c2cc(C)no2)n1C,> 100,> 100,> 100,> 100,> 100,> 100,> 100,71.6,,,,,,,,,
O=C(CCCCCCCCC(=O)N1C(=O)CC(=O)N(c2ccccc2)C1=S)N1C(=O)CC(=O)N(c2ccccc2)C1=S,> 100,> 100,> 100,,,> 100,> 100,> 100,> 100,> 100,,,,,,,
COc1cc(C2=NNC(=O)c3ccccc3N2c2nc(-c3cccs3)nc3ccc(Br)cc23)cc(OC)c1OC,30,> 100,27.8,24.2,> 100,89.9,> 100,,,,,,,,,,
C=CCN1C(=O)/C(=C/c2ccco2)N=C1SC1OC(COC(C)=O)C(OC(C)=O)C(OC(C)=O)C1OC(C)=O (stereo not drawn),> 100,> 100,> 100,> 100,> 100,> 100,> 100,> 100,> 100,> 100,,,,,,,
O=C1C=CC(=C(c2ccc(O)cc2)c2ccc(O)cc2)C=C1,,25.2,19.9,23.6,37.5,33.4,,29.7,7.37,27.6,,,,,,,
O=C1Nc2ccccc2Cn2c1cc1oc(-c3ccccc3)cc12,> 100,> 100,> 100,74.3,,> 100,87.2,> 100,> 100,> 100,,,,,,,
Cc1cn(CCCCCCC2=NCCCN2)c(=O)[nH]c1=O,> 100,> 100,> 100,> 100,> 100,> 100,> 100,> 100,,> 100,,,,,,,
CC(C)CCCC(C)[C@H]1CC[C@H]2[C@@H]3CC[C@H]4C[C@@H](CCC=C(c5cc(Cl)c(O)c(C(=O)OC(C)C)c5)c5cc(Cl)c(O)c(C(=O)OC(C)C)c5)CC[C@]4(C)[C@H]3CC[C@]12C (stereo partly drawn),> 50,> 50,> 50,> 50,,,> 50,> 50,,> 50,,,,,,,
COC(=O)[C@H]1NC(=O)CCSSC1(C)C,> 100,> 100,> 100,> 100,> 100,> 100,> 100,> 100,,,,,,,,,
CN(C)c1ccc(C=C2C(=O)N(c3ccccc3)N(c3ccccc3)C2=O)cc1,,> 100,> 100,,> 100,> 100,> 100,> 100,> 100,,,,,,,,
CCOC(=O)c1c(-c2ccc(Cl)cc2)c(C#N)c(=S)n(C2OC(COC(C)=O)C(OC(C)=O)C(OC(C)=O)C2OC(C)=O)c1-c1ccccc1 (stereo not drawn),> 100,,> 100,> 100,,> 100,> 100,> 100,> 100,> 100,,,,,,,
Brc1ccc2c3c1[C@H]1O[C@H]1c1cccc(c1-3)[C@@H]1O[C@H]21,76.8,37.7,,,64,37.4,40.6,> 100,> 100,,,,,,,,
Cc1c(-c2ccccc2)nn2cc(-c3ccccc3)nnc12,> 100,> 100,> 100,,49.5,> 100,62.9,> 100,> 100,34,,,,,,,
O=C1C=C2SC3C[C@@]24CC1[N+]1=c2c4c(c(O)c4c2=C(C=N4)CC1)N3,16.1,4.21,2.51,3.34,4.76,,,4.11,,6.78,,,,,,,
O=c1cc(NNc2cccc(F)c2)[nH]c(=O)[nH]1,> 100,,30.1,> 100,> 100,27.2,30.4,84.3,61.7,> 100,,,,,,,
COc1cc(C2c3cc4c(cc3OC(Nc3ccccc3)C2C)OCO4)cc(OC)c1O (stereo not drawn),8.02,23.8,24.6,8.9,39.8,20.2,19.3,11.2,,14.6,,,,,,,
C(=Nc1ccc(-c2nc3ccccc3[nH]2)cc1)c1ccc[nH]1,> 100,> 100,> 100,> 100,,> 100,,> 100,> 100,> 100,,,,,,,
C=CC(OC(C)=O)c1ccc(OC(=O)C(C)C)c(OC)c1 (stereo not drawn),60.8,11.1,12.4,22.6,39.8,11.5,18.4,36.2,,29.5,,,,,,,
COc1ccc(-c2ccc(-c3ccc(C(=N)N)nc3)s2)cc1Cl,,7.13,3.24,3.17,,,3.38,,,,2.6,1.83,1.74,1.7,,,
CCCCCc1nnc(NS(=O)(=O)c2ccc(NC(=O)OCC(C)C)cc2)s1,> 100,> 100,86.9,64.2,,> 100,> 100,54,36.9,,,,,,,,
CN(CCO)CCCC1COc2ccccc2O1 (stereo not drawn),> 100,> 100,> 100,> 100,> 100,> 100,,> 100,> 100,> 100,,,,,,,
O=c1[nH]c2ccccc2c(O)c1/C=N/C(=S)NCc1ccccc1,> 100,> 100,> 100,> 100,> 100,> 100,> 100,> 100,,,,,,,,,
c1ccc(CN[C@]23C4C5CC6C7C5C2C7[C@@](NCc2ccccc2)(C64)N3Cc2ccccc2)cc1 (stereo partly drawn),> 100,> 100,> 100,> 100,> 100,> 100,> 100,> 100,> 100,,,,,,,,

SMILES,TGI [1] [µM],TGI [2] [µM],TGI [3] [µM],TGI [4] [µM],TGI [5] [µM],TGI [6] [µM],TGI [7] [µM],TGI [8] [µM],TGI [9] [µM],TGI [10] [µM],GI50 [2] [µM],GI50 [3] [µM],GI50 [4] [µM],GI50 [7] [µM],GI50 [1] [µM],GI50 [9] [µM],GI50 [8] [µM]
CCCCCCNC(=O)CCC(NC(=O)c1ccc(N(C)Cc2cnc3nc(N)nc(N)c3n2)cc1)C(=O)NCCCCCC (stereo not drawn),> 100,> 100,> 100,,> 100,> 100,> 100,> 100,> 100,> 100,,,,,,,
COc1cc([C@@H]2c3cc4c(cc3[C@@H](Nc3ccccc3C(=O)c3ccccc3)[C@H]3COC(=O)[C@H]23)OCO4)cc(OC)c1OC,> 100,> 38.3,> 100,0.638,> 100,> 100,> 66.1,> 100,,> 28.7,,,,,,,
CCCCCCCCCCCCc1ccc(S(=O)(=O)O)cc1.[Zn+2],> 100,> 100,> 100,> 100,> 100,> 100,> 100,> 100,,> 100,,,,,,,
CC1(C)C(CCO)CC1n1cc(I)c(=O)[nH]c1=O (stereo not drawn),> 100,,> 100,> 100,> 100,> 100,> 100,> 100,,> 100,,,,,,,
COc1cc(C2SC(C)C(=O)N2c2ccc(-c3csc(NS(=O)(=O)c4ccc(Cl)c(OC)c4)n3)cc2)ccc1O (stereo not drawn),> 100,> 100,> 100,> 100,> 100,> 100,> 100,> 100,> 100,,,,,,,,
CCOC(=O)c1nc2ccccc2nc1Oc1ccc(C(=O)OC)cc1,> 100,> 100,> 100,> 100,> 100,> 100,> 100,> 100,,,,,,,,,
Cc1ccc(-n2cc(-c3ccc(Cl)cc3)c3c(N/N=C4\SCC(=O)N4C)ncnc32)cc1,> 100,> 100,> 100,33.9,> 100,8.18,23.8,> 100,> 100,,,,,,,,
COc1ccc2c(c1)C/C(=C\c1cccc3ccccc13)C2=O,> 100,> 100,50.4,44.8,59.7,> 100,,> 100,> 100,> 100,,,,,,,
O=c1oc2ccc([N+](=O)[O-])cc2c(Nc2ccc3c(c2)Sc2ccccc2O3)c1[N+](=O)[O-],85.5,77.3,31,37.7,35.8,58.3,38.8,,55.2,26.4,,,,,,,
CCOC(=O)c1c(Br)c(-c2ccc(OC)cc2)c(Br)n1C,55.3,> 100,67.7,70.9,87.5,94,> 100,> 100,78.3,,,,,,23.7,13.3,17.8
CSC1C(=O)Nc2ccc3ccccc3c21 (stereo not drawn),> 100,34.9,,45.7,> 100,33.2,56.5,> 100,,> 100,,,,,,,
Cc1ccc(NC(=O)C(Cc2c[nH]c3ccccc23)NC(=O)Oc2ccccc2)cc1C (stereo not drawn),> 100,> 100,> 100,> 100,> 100,25.5,> 100,> 100,,,,,,,,,
O=C(c1ccccc1)n1cc(-c2ccccc2)c2c(=O)[nH]cnc21,> 100,> 100,> 100,> 100,> 100,> 100,> 100,> 100,,> 100,,,,,,,
CCCCCc1cc2cc3c(c(O)c2c(=O)[nH]1)C1(CCC3)C(O)=c2c(=O)c3c(=O)cc(OC)c(=O)c=3c(=O)c2=C1O (stereo not drawn),15.3,3.25,2.21,,4.21,,4.28,4.01,4.27,4.42,,,,,,,
O=[N+]([O-])c1ccc(C(Nc2ccccc2)P(c2ccccc2)c2ccccc2)cc1 (stereo not drawn),> 100,> 100,,> 100,> 100,> 100,> 100,> 100,> 100,,,,,,,,
CC1(C)C(=O)c2ccccc2OC1N1CCN(C2Oc3ccccc3C(=O)C2(C)C)CC1 (stereo not drawn),> 100,,> 100,,> 100,> 100,> 100,> 100,> 100,> 100,,,,,,,
O=S(OC12CC3CC(CC(C3)C1)C2)c1cc(Cl)cc(Cl)c1OCc1ccccc1 (stereo not drawn),,,> 100,> 100,,> 100,,> 100,> 100,> 100,,,,,,,
CCO[C@@]1(COCc2ccccc2)OC(=O)C[C@@H]1N1C(=O)OC[C@@H]1c1ccccc1,> 100,> 100,> 100,> 100,> 100,> 100,> 100,> 100,,> 100,,,,,,,
CC(=O)OC(Cc1ccc2ccccc2n1)(C(F)(F)F)C(F)(F)F,> 19.6,3.96,1.99,7.71,4.77,2.55,4.12,16,,7.57,,,,,,,
CCCCCCCC(CC(=O)NC(CO)C(=O)NC(CO)CC(C)C)OC(=O)CC(CCCCCCC)OC(=O)CC(CCCCCCC)OC1OC(C)C(O)C(OC2OC(C)C(O)C(O)C2OC(C)=O)C1O (stereo not drawn),,22.4,25.6,23.5,39,26,21.5,10.5,4.93,25.8,,,,,,,
COc1cc(O)c2c(=O)c3c(C)cccc3n(C)c2c1,> 10,> 10,> 10,> 10,> 10,> 10,> 10,> 10,,> 10,,,,,,,
Cc1ccc2c(=O)c(C(=O)Nn3c(C)csc3=S)c[nH]c2n1,> 100,> 100,> 100,,> 100,> 100,> 100,> 100,,,,,,,,,
